PMC9144807, “Fluorine-18 Labeled Urea-Based Ligands Targeting Prostate-Specific Membrane Antigen (PSMA) with Increased Tumor and Decreased Renal Uptake” (Pharmaceuticals, 2022)
Several values for one entry are separate records, joined by “and”; a condition that tells them apart may be missing. Equal values may be shown once. Read-outs that look alike come from different tables or passages of the source.

Tests used:
PSMA [1] = molecular target: T1, PSMA (Homo sapiens, UniProt Q04609); test: In vitro competition binding assay with [18F]DCFPyL as radioligand, PC3(+) tumor membrane preparations
T1 construct: expressed in transfected cells; host or cells: PC3(+) (PC3 human prostate cancer cells transfected with human PSMA), grown as xenograft tumors in athymic mice; tumor membrane preparations

PC3(+) xenografts [2] = test: In vivo biodistribution in PC3(+) xenograft mice; design: key to salivary gland T:M / Femur T:M / Blood T:M / Kidney T:M / Liver T:M: T:M = (%ID/g in tissue) / (%ID/g in muscle); conditions: for Radioactivity in the blood: 60 min (Figure 5A)
Procedure: (§1) PC3(−) (wildtype human prostate cancer cell line, PSMA negative) and PC3(+) (transfected with human PSMA) were provided by Dr. Hisataka Kobayashi. Cell lines were grown at 37 °C in 5% CO2 in RPMI-1640 supplemented with 10% FBS, 2 mM L-glutamine and Pen/Strep/Amphotericin B. PC3(+) and PC3(−) cell suspensions [2 × 10^6 cells; PBS:Matrigel (70:30)] from in vitro cell culture were subcutaneously implanted (right shoulder) into athymic mice (Athymic NCr- nu/nu, Charles River Laboratory, 4 weeks old) for use as positive and negative controls, respectively, for in vitro or in vivo studies. When tumors reached the appropriate size (>100 mg) the xenograft mice were used for in vivo biodistributions and imaging studies or the tumors were excised and further processed to obtain membrane preparations for in vitro assays as described previously.
(§2) Tumor-bearing mice (tumor weights: 0.1–0.8 g) were injected while awake via the tail vein with each of the tracers [0.74–3.7 MBq (20 to 100 µCi), 10 to 80 pmol] and euthanized (via CO2 inhalation) at selected times. […] Blood samples and tissues were excised from each animal, weighed, and radioactivity content was determined (Perkin Elmer 2480 Wizard3). Radioactivity content in the blood and each tissue was expressed as % injected dose per gram of tissue [%ID/g; (Formula (1))] and then normalized for body weight to a 20 g mouse (Formula (2)) from which Tissue:Muscle ratios [T:M; (Formula (3))] were determined as follows:(1) %ID/g =[counts per minute cpmtissue / tissue weight g]×100/cpmtotal injected dose
(§3) %ID/g (normalized to a 20 g mouse) = (%ID/g) × (body weight/20 g)(2)
(§4) (3) T:M=%ID/gtissue/%ID/gmuscle

PC3(−) xenografts = test: In vivo biodistribution in PC3(−) xenograft mice (negative control); conditions: 60 min; mean ± SE, n = 8–10
Procedure: as §1, §2, §3, §4

[3] = Fraction of intact tracer (parent) in blood and kidney by TLC; format: in vivo, mice; conditions: for %Parent compound in blood (TLC analysis): 60 min; for tissue uptake at 0.25 h: 15 min post-injection; for tissue uptake at 0.5 h: 30 min post-injection; for tissue uptake at 2 h: 120 min post-injection
Description: In some cases, additional blood samples and/or tissue samples after gamma counting were taken for determining the fraction of intact radiolabeled tracer (parent) using thin-layer chromatography (TLC). For these TLC determinations: tissues were placed in equal volumes of acetonitrile and homogenized, or serum was obtained from the blood samples and mixed with an equal volume of acetonitrile. Following centrifugation of the samples, supernatants were collected and the radioactive content of the supernatants and pellets were determined. The supernatants were then applied to thin-layer chromatography (TLC) plates. The TLC plates were developed [solvent system: ethyl acetate (80%), methanol (10%) and acetic acid (10%)], and exposed on a phosphorimaging plate which was scanned the next day.

PSMA [4] = molecular target: T1, PSMA; test: In vitro saturation binding assay with PC3(+) tumor membrane preparations; conditions: saturation assays, mean (SE), n = 3–5
Procedure: as §1
In vitro saturation studies were performed to determine binding affinities (Kd) and PSMA expression levels (Bmax) using tumor membrane preparations from PC3(−) and PC3(+) PSMA xenografts (human prostate cancer cell line transfected with human PSMA; PC3(+)). […] Filter papers were collected, and the radioactive content was quantified by gamma counting (PerkinElmer 2480 Wizard3). […] Aliquots of each membrane preparation were taken for the determination of the protein concentration (Bradford method).

PC3(+) xenografts [5] = test: Blocking biodistribution study in PC3(+) xenografts, coinjection of non-radioactive DCFPyL; format: in vivo, mice; conditions: 60 min, coinjection of DCFPyL 1000×
Procedure: as §2, §3, §4

[6] = system: PC3(+) tumor xenograft mice; test: Small animal PET imaging with ROI analysis, PC3(+) tumor xenograft mice; format: in vivo; conditions: 60 min post-injection
Procedure: Tumor-bearing mice were anesthetized with isoflurane/O2 (1.5–3% v/v) and imaged at various times after intravenous injection of each tracer [2.6 to 3.7 MBq (70 to 100 µCi)]. Whole body static PET images were obtained at 2 bed positions (FOV = 2.0 cm, total imaging time: 10 min) using a BioPET scanner (Bioscan Inc., Washington, DC, USA). The images were reconstructed by a 3-dimensional ordered-subsets expectation maximum (3D-OSEM).

[7] = 15 min post-injection, mean ± SE
[8] = 30 min post-injection, mean ± SE
[9] = 60 min post-injection, mean ± SE
[10] = 120 min post-injection, mean ± SE
[11] = mouse, blood, intravenous, mean ± SE, read-out: Blood uptake, parent (corrected for metabolites)
[12] = mouse, kidney, intravenous, mean ± SE, read-out: Kidney uptake, parent (corrected for metabolites)

T1 sequence (Q04609 whole entry): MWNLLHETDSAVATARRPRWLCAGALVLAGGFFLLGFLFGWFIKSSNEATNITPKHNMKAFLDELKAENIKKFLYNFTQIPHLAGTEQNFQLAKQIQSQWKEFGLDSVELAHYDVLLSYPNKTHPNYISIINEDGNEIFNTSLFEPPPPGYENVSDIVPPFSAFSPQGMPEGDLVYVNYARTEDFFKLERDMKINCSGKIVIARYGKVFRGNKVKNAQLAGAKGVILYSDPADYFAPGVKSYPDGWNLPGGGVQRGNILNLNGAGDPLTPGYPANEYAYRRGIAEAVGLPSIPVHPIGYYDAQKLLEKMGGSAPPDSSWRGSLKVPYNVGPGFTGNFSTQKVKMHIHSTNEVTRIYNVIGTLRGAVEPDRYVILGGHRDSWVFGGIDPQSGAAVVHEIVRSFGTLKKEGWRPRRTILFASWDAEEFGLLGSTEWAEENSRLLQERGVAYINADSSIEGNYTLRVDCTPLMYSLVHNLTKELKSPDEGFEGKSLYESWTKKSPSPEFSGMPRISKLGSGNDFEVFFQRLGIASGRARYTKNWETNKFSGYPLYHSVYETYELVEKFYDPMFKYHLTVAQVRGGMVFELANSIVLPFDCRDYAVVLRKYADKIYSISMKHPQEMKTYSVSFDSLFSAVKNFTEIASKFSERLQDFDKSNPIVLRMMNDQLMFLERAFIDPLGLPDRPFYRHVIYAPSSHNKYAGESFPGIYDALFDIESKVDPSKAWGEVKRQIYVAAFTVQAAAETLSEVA

With `O=C(O)CC[C@H](NC(=O)N[C@@H](CCCCNC(=O)CO/N=C\c1ccc(F)cc1)C(=O)O)C(=O)O` [1a, (((S)-5-(2-(aminooxy)acetamido)-1-carboxypentyl)carbamoyl)-L-glutamic acid 4-fluorobenzaldehyde oxime, reference compound] as the molecule, how does the Ki (PSMA [1]) read?
The Ki was 0.101 nM.

With `O=C(O)CC[C@H](NC(=O)N[C@@H](CCCCNC(=O)CO/N=C\c1ccc(F)nc1)C(=O)O)C(=O)O` [1b, (((S)-5-(2-(aminooxy)acetamido)-1-carboxypentyl)carbamoyl)-L-glutamic acid 6-fluoronicotinaldehyde oxime] as the molecule, how does the Ki (PSMA [1]) read?
The Ki was 0.312 nM.

With `O=C(O)CC[C@H](NC(=O)N[C@@H](CCCCNC(=O)CCCCCO/N=C\c1ccc(F)cc1)C(=O)O)C(=O)O` [2a, (((. S)-5-(6-(Aminooxy)hexanamido)-1-carboxypentyl)carbamoyl)-L-glutamic acid 4-fluorobenzaldehyde oxime] as the molecule, how does the Ki (PSMA [1]) read?
Its Ki is 0.621 nM.

Which Ki (PSMA [1]) does the source give for `O=C(O)CC[C@H](NC(=O)N[C@@H](CCCCNC(=O)CCCCCO/N=C\c1ccc(F)nc1)C(=O)O)C(=O)O` [2b, (((. S)-5-(6-(Aminooxy)hexanamido)-1-carboxypentyl)carbamoyl)-L-glutamic acid 6-fluoronicotinaldehyde oxime] here?
The Ki was 0.901 nM.

Which “decrease of blood radioactivity compared to [18F]DCFPyL” value (PC3(+) xenografts [2]; 60 min) does the source give for `O=C(O)CC[C@H](NC(=O)N[C@@H](CCCCNC(=O)CO/N=C\c1ccc([18F])nc1)C(=O)O)C(=O)O` [[^18F]1b] here?
Its value is 40%.

And the “increase of PC3(+) tumor T:M compared to [18F]DCFPyL” value (PC3(+) xenografts [2]; 60 min)?
The value was 1.6 fold.

What about the “increase of kidney T:M compared to [18F]DCFPyL” value (PC3(+) xenografts [2]; 60 min) of the same molecule?
The value was 1.4 fold.

What about the “Radioactivity in the blood” value (PC3(+) xenografts [2]) of the same molecule?
The value was 0.309 %ID/g.

What about the “Blood T:M” value (PC3(+) xenografts [2]; 60 min, mean ± SE, n = 8–10) of the same molecule?
The value was 2.26 ± 0.22.

And the “Femur T:M” value (PC3(+) xenografts [2]; 60 min, mean ± SE, n = 8–10)?
The value was 1.80 ± 0.17.

And the “Kidney T:M” value (PC3(+) xenografts [2]; 60 min, mean ± SE, n = 8–10)?
Its value is 1013 ± 34.

And the “Liver T:M” value (PC3(+) xenografts [2]; 60 min, mean ± SE, n = 8–10)?
The value was 24.9 ± 2.0.

What about the “PC3(+) Tumor T:M” value (PC3(+) xenografts [2]; 60 min, mean ± SE, n = 8–10) of the same molecule?
The value was 204 and 203.7 ± 34.5.

And the “PC3(−) Tumor T:M” value (PC3(−) xenografts)?
Its value is 1.43 ± 0.29.

And the “%Parent compound in blood (TLC analysis)” value ([3]; mean ± SD, n = 2–5)?
Its value is 74.4 ± 7.6%.

And the Kd (PSMA [4])?
The Kd was 0.458 nM.

Which results are given for `O=C(O)CC[C@H](NC(=O)N[C@@H](CCCCNC(=O)CCCCCO/N=C\c1ccc([18F])cc1)C(=O)O)C(=O)O` [[^18F]2a]?
Blood uptake, total radioactivity (PC3(+) xenografts [2]; [7]): 4.83 ± 0.57 %ID/g; Kidney uptake, total radioactivity (PC3(+) xenografts [2]; [7]): 62.2 ± 3.4 %ID/g; Blood uptake, total radioactivity (PC3(+) xenografts [2]; [8]): 2.47 ± 0.18 %ID/g; Kidney uptake, total radioactivity (PC3(+) xenografts [2]; [8]): 78.4 ± 9.1 %ID/g; decrease of PC3(+) tumor T:M compared to [18F]DCFPyL (PC3(+) xenografts [2]; 60 min): 40%; increase of blood radioactivity vs. [18F]DCFPyL (PC3(+) xenografts [2]; 60 min): 1.6 fold; increase of liver T:M compared to [18F]DCFPyL (PC3(+) xenografts [2]; 60 min): 6.8 fold; decrease of kidney T:M compared to [18F]DCFPyL (PC3(+) xenografts [2]; 60 min, p < 0.0001): 55%; Blood T:M (PC3(+) xenografts [2]; 60 min, mean ± SE, n = 8–10): 2.85 ± 0.15; Femur T:M (PC3(+) xenografts [2]; 60 min, mean ± SE, n = 8–10): 0.73 ± 0.04; Kidney T:M (PC3(+) xenografts [2]; 60 min, mean ± SE, n = 8–10): 314.8 ± 8.3; Liver T:M (PC3(+) xenografts [2]; 60 min, mean ± SE, n = 8–10): 66.9 ± 4.2; PC3(+) Tumor T:M (PC3(+) xenografts [2]; 60 min, mean ± SE, n = 8–10): 74 and 73.9 ± 5.8; Blood uptake, total radioactivity (PC3(+) xenografts [2]; [9]): 0.77 ± 0.10 %ID/g; Kidney uptake, total radioactivity (PC3(+) xenografts [2]; [9]): 75.8 ± 6.3 %ID/g; Blood uptake, total radioactivity (PC3(+) xenografts [2]; [10]): 0.37 ± 0.03 %ID/g; Kidney uptake, total radioactivity (PC3(+) xenografts [2]; [10]): 87.8 ± 5.1 %ID/g; Femur uptake (PC3(+) xenografts [2]; all times 15 to 120 min): < 1 %ID/g; Femur T:M (PC3(+) xenografts [2]; all times except 120 min): < 1.8; decrease of tumor T:M compared to [18F]DCFPyL tumor T:M (PC3(+) xenografts [2]; at 30 and 60 min): ~ 2 fold; increase in tumor T:M from 15 to 120 min (PC3(+) xenografts [2]; mouse, in vivo): ~ 14 fold; increase of tumor retention (%ID/g) from 15 to 120 min (PC3(+) xenografts [2]; mouse, in vivo): 1.4 fold; decrease of PC3(+) tumor T:M in blocked group compared to non-blocked group (PC3(+) xenografts [5]): 48%; PC3(−) Tumor T:M (PC3(−) xenografts): 1.42 ± 0.13; %Parent compound in blood (TLC analysis) ([3]; mean ± SD, n = 2–5): 84.8 ± 0.6%; increase of parent kidney uptake compared to [18F]DCFPyL ([3]; 120 min): 4 fold; tissue uptake at 0.25 h [3, 11]: 4.1 ± 0.49 %ID/g; tissue uptake at 0.5 h [3, 11]: 2.08 ± 0.15 %ID/g; tissue uptake at 2 h [3, 11]: 0.31 ± 0.03 %ID/g; tissue uptake at 0.25 h [3, 12]: 11.8 ± 0.64 %ID/g; tissue uptake at 0.5 h [3, 12]: 22.7 ± 1.73 %ID/g; tissue uptake at 1 h ([3]; mouse, kidney, intravenous, 60 min post-injection, mean ± SE, read-out: Kidney uptake, parent (corrected for metabolites)): 15.6 ± 1.19 %ID/g; tissue uptake at 2 h [3, 12]: 13 ± 0.98 %ID/g; % of parent in blood ([3]; nude, mouse, in vivo): 85-83; % of parent in kidney ([3]; nude, mouse, in vivo): 29-15; %Parent compound in blood (TLC analysis) ([3]; nude, mouse, in vivo): 85%; Kd (PSMA [4]): 0.362 nM; PC3(+) tumor uptake from ROI analysis of PET images [6]: 14 %ID/g; increase of liver uptake compared to [18F]DCFPyL (PET ROI) [6]: ~ 10 fold; kidney uptake from ROI analysis of PET images [6]: 98 %ID/g; liver uptake from ROI analysis of PET images [6]: 29 %ID/g; reduction of kidney uptake compared to [18F]DCFPyL (PET ROI) [6]: ~ 50%

Which “decrease of PC3(+) tumor T:M compared to [18F]DCFPyL” value (PC3(+) xenografts [2]; 60 min) does the source give for `O=C(O)CC[C@H](NC(=O)N[C@@H](CCCCNC(=O)CCCCCO/N=C\c1ccc([18F])nc1)C(=O)O)C(=O)O` [[^18F]2b] here?
Its value is 27%.

What about the “decrease of blood radioactivity compared to [18F]DCFPyL” value (PC3(+) xenografts [2]; 60 min) of the same molecule?
Its value is 27%.

And the “Radioactivity in the blood” value (PC3(+) xenografts [2])?
The value was 0.377 %ID/g.

What about the “Blood T:M” value (PC3(+) xenografts [2]; 60 min, mean ± SE, n = 8–10) of the same molecule?
Its value is 2.04 ± 0.11.

What about the “Femur T:M” value (PC3(+) xenografts [2]; 60 min, mean ± SE, n = 8–10) of the same molecule?
Its value is 2.00 ± 0.18.

And the “Kidney T:M” value (PC3(+) xenografts [2]; 60 min, mean ± SE, n = 8–10)?
The value was 814.2 ± 71.9.

What about the “Liver T:M” value (PC3(+) xenografts [2]; 60 min, mean ± SE, n = 8–10) of the same molecule?
Its value is 44.6 ± 3.8.

What about the “PC3(+) Tumor T:M” value (PC3(+) xenografts [2]; 60 min, mean ± SE, n = 8–10) of the same molecule?
The value was 90 and 89.9 ± 7.6.

And the “decrease of PC3(+) tumor T:M in blocked group compared to non-blocked group” value (PC3(+) xenografts [5])?
Its value is 85%.

And the “PC3(−) Tumor T:M” value (PC3(−) xenografts)?
The value was 1.65 ± 0.20.

What about the “%Parent compound in blood (TLC analysis)” value ([3]; mean ± SD, n = 2–5) of the same molecule?
Its value is 78.8 ± 2.6%.

What about the Kd (PSMA [4]) of the same molecule?
Its Kd is 0.489 nM.
